Values joined by “and” are separate entries in the source; they are usually repeats but may differ in a detail not shown here. Equal values may be shown once. Read-outs that look alike come from different tables or passages of the source.
Assays:
[1] = Pharmacokinetics after single oral administration to rats; assay type: in vivo, rat; settings: for AUC(0-inf) / Cmax / Tmax / AUC(0-t) / half-life: po; for half-life: read-out: Terminal t1/2, Mean (converted); for AUC: read-out: AUC48
Description: (§1) Experiments were performed at ChemPartner, Shanghai, China and approved by Institutional Ethics Committee (IEC) of ChemPartner. Male Wistar 10–12 weeks old rats with body weights of 185–220 g and male New Zealand rabbits with body weights of 2.0–2.3 kg were purchased from Shanghai SLAC Laboratory Animal Co., Ltd. MT-SYK-03 was administered to the three groups of rats (six rats per group) via oral gavage at 10 mL/kg concentration, and in rabbits 5 mL/kg concentration. Blood samples were kept on ice and centrifuged (2000 g, 4 ℃, 5 min) within 15 min post sampling.

SYK = SYK (Homo sapiens, UniProt P43405); assay: SYK inhibition luminescent assay; assay type: biochemical; set-up: 6xHis; made in house; host or cells: Sf9
Description: Luminescent assay was performed at A. N. Bakh Institute of Biochemistry (Moscow, Russia). Recombinant 6xHis-SYK kinase (expressed in Sf9 cells) was obtained as described previously. […] After incubation (20 min) Kinase-Glo reagent (Promega) was added. The luminescence was detected using the Fusion Universal Microplate Analyzer (PerkinElmer USA).

THP-1 cells = assay: Inhibition of TNF-α secretion by activated monocytes; assay type: cell-based; settings: Homo sapiens, differentiated monocytes, IgG-coated plates, read-out: IC50, inhibition of TNF-α release
Description: The assay was performed at A. N. Bakh Institute of Biochemistry, Russia. Human leukemia monocytic THP-1 cells obtained from Russian collection cell cultures (RCCC) were cultured in 5% CO2 humidified atmosphere at 37 °C in RPMI 1640 supplemented with 100 U mL^–1 penicillin/streptomycin, 2% FBS and 20 μM β-mercaptoethanol. THP-1 cells were incubated in 5% CO2 atmosphere at 37 °C in RPMI 1640 medium. To induce differentiation the cells were treated with IFN-g for six days. 96-well culture plate coated with combined human IgG were incubated during night at 4 °C (or for 1 h at 37 °C). To evaluate baseline cell simulation F(ab’)2 was used as a negative control in part of wells. Unbounded antibodies were removed with sodium-phosphate buffer. A solution of test compound (MT-SYK-03 or) and differentiated cells in cultivating medium were added in each well. […] Each concentration was tested in triplicate; the experiment was replicated twice. For dose–response curve see Fig. S3.

[2] = Pharmacokinetics after single oral administration to rabbits; assay type: in vivo, rabbit; settings: single oral 50 mg/kg
Description: as §1

[3] = male, Wistar, rat, plasma, rats, single oral 30 mg/kg
[4] = male, Wistar, rat, plasma, rats, single oral 100 mg/kg
[5] = male, Wistar, rat, plasma, rats, single oral 200 mg/kg
[6] = male, New Zealand, rabbit, plasma

Question: Which concentration at 48 h ([1]; male, Wistar, rat, plasma, oral, 200 mg/kg, Table S8, 200 mg/kg PO, male Wistar rats, 48 h, mean of Rat#13-18, read-out: Plasma concentration, Mean) does the source give for `COc1cc(Nc2ncnc(Nc3cc4c(cn3)NC(=O)C(C)(C)O4)n2)cc(OC)c1OC` [MT-SYK-03] here?
Answer: The concentration at 48 h was 5.44 ng/mL.

Question: And the AUC(0-inf) ([1]; male, Wistar, rat, plasma, 30 mg/kg, rats, single oral 30 mg/kg, read-out: AUCinf)?
Answer: The AUC(0-inf) was 2420 ± 945 ng·h/mL.

Question: What about the Cmax ([1]; male, Wistar, rat, plasma, 30 mg/kg, rats, single oral 30 mg/kg, read-out: Cmax) of the same compound?
Answer: Its Cmax is 416 ± 114 ng/mL.

Question: And the Tmax ([1]; male, Wistar, rat, plasma, 30 mg/kg, rats, single oral 30 mg/kg, read-out: Tmax)?
Answer: Its Tmax is 1.5 ± 0.548 h.

Question: And the Tmax ([1]; male, Wistar, rat, plasma, 100 mg/kg, Table S6, 100 mg/kg PO, male Wistar rats, plasma, individual Rat#1-6, read-out: Tmax)?
Answer: The Tmax was 2 h.

Question: And the AUC(0-inf) ([1]; male, Wistar, rat, plasma, 100 mg/kg, Table S6, 100 mg/kg PO, male Wistar rats, plasma, mean of Rat#1-6, read-out: AUCINF, Mean)?
Answer: The AUC(0-inf) was 2420 ng·h/mL.

Question: What about the AUC(0-t) ([1]; male, Wistar, rat, plasma, 100 mg/kg, Table S6, 100 mg/kg PO, male Wistar rats, plasma, mean of Rat#1-6, read-out: AUClast, Mean) of the same compound?
Answer: Its AUC(0-t) is 2340 ng·h/mL.

Question: What about the Cmax ([1]; male, Wistar, rat, plasma, 100 mg/kg, Table S6, 100 mg/kg PO, male Wistar rats, plasma, mean of Rat#1-6, read-out: Cmax, Mean) of the same compound?
Answer: The Cmax was 416 ng/mL.

Question: What about the half-life ([1]; male, Wistar, rat, plasma, 100 mg/kg, Table S6, 100 mg/kg PO, male Wistar rats, plasma, mean of Rat#1-6) of the same compound?
Answer: The half-life was 5.53 h.

Question: And the Tmax ([1]; male, Wistar, rat, plasma, 100 mg/kg, Table S6, 100 mg/kg PO, male Wistar rats, plasma, mean of Rat#1-6, read-out: Tmax, Mean)?
Answer: The Tmax was 1.5 h.

Question: What about the AUC(0-inf) ([1]; male, Wistar, rat, plasma, 100 mg/kg, Table S7, 100 mg/kg PO, male Wistar rats, plasma, individual Rat#7-12, read-out: AUCINF) of the same compound?
Answer: Its AUC(0-inf) is 4250 ng·h/mL.

Question: And the AUC(0-t) ([1]; male, Wistar, rat, plasma, 100 mg/kg, Table S7, 100 mg/kg PO, male Wistar rats, plasma, individual Rat#7-12, read-out: AUClast)?
Answer: The AUC(0-t) was 4240 ng·h/mL.

Question: And the Cmax ([1]; male, Wistar, rat, plasma, 100 mg/kg, Table S7, 100 mg/kg PO, male Wistar rats, plasma, individual Rat#7-12, read-out: Cmax)?
Answer: The Cmax was 822 ng/mL.

Question: And the Tmax ([1]; male, Wistar, rat, plasma, 100 mg/kg, Table S7, 100 mg/kg PO, male Wistar rats, plasma, individual Rat#7-12, read-out: Tmax)?
Answer: Its Tmax is 1 h.

Question: What about the AUC(0-inf) ([1]; male, Wistar, rat, plasma, 100 mg/kg, Table S7, 100 mg/kg PO, male Wistar rats, plasma, mean of Rat#7-12, read-out: AUCINF, Mean) of the same compound?
Answer: Its AUC(0-inf) is 4270 ng·h/mL.

Question: What about the AUC(0-t) ([1]; male, Wistar, rat, plasma, 100 mg/kg, Table S7, 100 mg/kg PO, male Wistar rats, plasma, mean of Rat#7-12, read-out: AUClast, Mean) of the same compound?
Answer: Its AUC(0-t) is 4260 ng·h/mL.

Question: And the Cmax ([1]; male, Wistar, rat, plasma, 100 mg/kg, Table S7, 100 mg/kg PO, male Wistar rats, plasma, mean of Rat#7-12, read-out: Cmax, Mean)?
Answer: The Cmax was 864 ng/mL.

Question: What about the half-life ([1]; male, Wistar, rat, plasma, 100 mg/kg, Table S7, 100 mg/kg PO, male Wistar rats, plasma, mean of Rat#7-12) of the same compound?
Answer: Its half-life is 4.06 h.

Question: What about the Tmax ([1]; male, Wistar, rat, plasma, 100 mg/kg, Table S7, 100 mg/kg PO, male Wistar rats, plasma, mean of Rat#7-12, read-out: Tmax, Mean) of the same compound?
Answer: The Tmax was 1 h.

Question: What about the AUC(0-inf) ([1]; male, Wistar, rat, plasma, 100 mg/kg, rats, single oral 100 mg/kg, read-out: AUCinf) of the same compound?
Answer: The AUC(0-inf) was 4270 ± 608 ng·h/mL.

Question: What about the Cmax ([1]; male, Wistar, rat, plasma, 100 mg/kg, rats, single oral 100 mg/kg, read-out: Cmax) of the same compound?
Answer: The Cmax was 864 ng/mL and 1.42 µM.

Question: And the Tmax ([1]; male, Wistar, rat, plasma, 100 mg/kg, rats, single oral 100 mg/kg, read-out: Tmax)?
Answer: The Tmax was 1 h.

Question: And the AUC(0-inf) ([1]; male, Wistar, rat, plasma, 200 mg/kg, Table S8, 200 mg/kg PO, male Wistar rats, plasma, individual Rat#13-18, read-out: AUCINF)?
Answer: Its AUC(0-inf) is 7500 ng·h/mL.

Question: And the AUC(0-t) ([1]; male, Wistar, rat, plasma, 200 mg/kg, Table S8, 200 mg/kg PO, male Wistar rats, plasma, individual Rat#13-18, read-out: AUClast)?
Answer: Its AUC(0-t) is 7480 ng·h/mL.

Question: What about the Cmax ([1]; male, Wistar, rat, plasma, 200 mg/kg, Table S8, 200 mg/kg PO, male Wistar rats, plasma, individual Rat#13-18, read-out: Cmax) of the same compound?
Answer: The Cmax was 1180 ng/mL.

Question: What about the Tmax ([1]; male, Wistar, rat, plasma, 200 mg/kg, Table S8, 200 mg/kg PO, male Wistar rats, plasma, individual Rat#13-18, read-out: Tmax) of the same compound?
Answer: The Tmax was 2 h.

Question: What about the AUC(0-inf) ([1]; male, Wistar, rat, plasma, 200 mg/kg, Table S8, 200 mg/kg PO, male Wistar rats, plasma, mean of Rat#13-18, read-out: AUCINF, Mean) of the same compound?
Answer: Its AUC(0-inf) is 7320 ng·h/mL.

Question: What about the AUC(0-t) ([1]; male, Wistar, rat, plasma, 200 mg/kg, Table S8, 200 mg/kg PO, male Wistar rats, plasma, mean of Rat#13-18, read-out: AUClast, Mean) of the same compound?
Answer: The AUC(0-t) was 7270 ng·h/mL.

Question: What about the Cmax ([1]; male, Wistar, rat, plasma, 200 mg/kg, Table S8, 200 mg/kg PO, male Wistar rats, plasma, mean of Rat#13-18, read-out: Cmax, Mean) of the same compound?
Answer: The Cmax was 1280 ng/mL.

Question: And the half-life ([1]; male, Wistar, rat, plasma, 200 mg/kg, Table S8, 200 mg/kg PO, male Wistar rats, plasma, mean of Rat#13-18)?
Answer: The half-life was 5.08 h.

Question: What about the Tmax ([1]; male, Wistar, rat, plasma, 200 mg/kg, Table S8, 200 mg/kg PO, male Wistar rats, plasma, mean of Rat#13-18, read-out: Tmax, Mean) of the same compound?
Answer: The Tmax was 1.33 h.

Question: What about the AUC(0-inf) ([1]; male, Wistar, rat, plasma, 200 mg/kg, rats, single oral 200 mg/kg, read-out: AUCinf) of the same compound?
Answer: Its AUC(0-inf) is 7320 ± 1460 ng·h/mL.

Question: And the Cmax ([1]; male, Wistar, rat, plasma, 200 mg/kg, rats, single oral 200 mg/kg, read-out: Cmax)?
Answer: Its Cmax is 1280 ng/mL and 2.1 µM.

Question: And the Tmax ([1]; male, Wistar, rat, plasma, 200 mg/kg, rats, single oral 200 mg/kg, read-out: Tmax)?
Answer: Its Tmax is 1.33 ± 0.516 h.

Question: What about the k el [1, 3] of the same compound?
Answer: The k el was 4.44e-05 s⁻¹.

Question: What about the AUC [1, 3] of the same compound?
Answer: The AUC was 2340 ± 979 ng·h/mL.

Question: What about the k el [1, 4] of the same compound?
Answer: Its k el is 5.28e-05 s⁻¹.

Question: And the AUC [1, 4]?
Answer: The AUC was 4260 ± 621 ng·h/mL.

Question: And the k el [1, 5]?
Answer: The k el was 4.72e-05 s⁻¹.

Question: What about the AUC [1, 5] of the same compound?
Answer: Its AUC is 7270 ± 1490 ng·h/mL.

Question: And the “Average plasma concentration after administration in rats” value ([1]; rats, PO)?
Answer: Its value is 200 to 700 nM.

Question: And the MRT24 ([1]; rats, single oral 30 mg/kg)?
Answer: Its MRT24 is 4.26 ± 0.57 h.

Question: And the τ1/2 ([1]; rats, single oral 30 mg/kg)?
Answer: Its τ1/2 is 5.53 ± 2.38 h.

Question: What about the MRT24 ([1]; rats, single oral 100 mg/kg) of the same compound?
Answer: Its MRT24 is 4.12 ± 0.56 h.

Question: What about the τ1/2 ([1]; rats, single oral 100 mg/kg) of the same compound?
Answer: Its τ1/2 is 4.06 ± 1.49 h.

Question: And the MRT24 ([1]; rats, single oral 200 mg/kg)?
Answer: The MRT24 was 4.89 ± 1.63 h.

Question: What about the τ1/2 ([1]; rats, single oral 200 mg/kg) of the same compound?
Answer: Its τ1/2 is 5.08 ± 2.39 h.

Question: And the IC50 (SYK; read-out: IC50, luminescent assay)?
Answer: The IC50 was 23 nM.

Question: What about the IC50 (SYK; span of luminescent and radiometric assays, read-out: IC50 (SYK), as given in Figure 1c) of the same compound?
Answer: Its IC50 is 14 nM and 23 to 40 nM.

Question: What about the IC50 (THP-1 cells) of the same compound?
Answer: Its IC50 is 480 nM.

Question: And the AUC(0-inf) [2, 6]?
Answer: Its AUC(0-inf) is 121000 ng·h/mL.

Question: What about the Cmax [2, 6] of the same compound?
Answer: The Cmax was 8570 ng/mL and 14.1 µM.

Question: What about the Tmax [2, 6] of the same compound?
Answer: Its Tmax is 6 ± 2.19 h.

Question: What about the k el [2, 6] of the same compound?
Answer: Its k el is 2.67e-05 s⁻¹.

Question: What about the AUC ([2]; male, New Zealand, rabbit, plasma, read-out: AUC48) of the same compound?
Answer: The AUC was 119000 ng·h/mL.

Question: And the MRT24 [2]?
Answer: The MRT24 was 9.2 ± 0.66 h.

Question: And the τ1/2 [2]?
Answer: The τ1/2 was 7.41 ± 1.32 h.

Source: PMC8632988, “Inhibition of SYK and cSrc kinases can protect bone and cartilage in preclinical models of osteoarthritis and rheumatoid arthritis” (Scientific Reports, 2021)
